Results on two compounds are retold here after article PMC5838563, “Compounds producing an effective combinatorial regimen for disruption of HIV‐1 latency” (EMBO Molecular Medicine, 2017).

What all share (assay type): cell-based
In test [1] the test system is HIV‐1 LTR chromatin (Jurkat^Tat LTR‐DsRed clone #11). As to the kind of experiment: ChIP of histone H3K9 modifications at the HIV‐1 LTR. How it is done: To characterize induction of HIV‐1 expression caused by PH02 in more detail, we employed chromatin immunoprecipitation (ChIP) assays to examine changes at the LTR promoter using Jurkat^Tat LTR‐DsRed clone #11.
(§1) Figure 6 Effect of PH02 on histone modification at HIV‐1 LTR and global histone modification • Chromatin immunoprecipitation assays were performed using Jurkat^Tat LTR‐DsRed, clone 11. The cells were treated for 24 h with PH02 and/or PEP005, and ChIP was performed using antibodies against histone H3K9‐me3 (left panel) and histone H3K9‐ac (right panel). The results are presented relative to ChIP with antihistone H3 antibodies. The results are determined from three biological replicates (n = 3). Statistical significance, as determined by ratio paired t‐test, is indicated as follows: ***P < 0.0005; ****P < 0.00005. The exact P‐values are indicated in Appendix Table S1. • Western blot analysis was performed using Jurkat^Tat LTR‐DsRed, clone 11, to detect the expression of SP1, NF‐κB p65, IκBα, total H3K9‐me3, and H3K9ac. The cells were treated for 24 h with PH02 and/or PEP005. Source data are available online for this figure.
Jurkat^Tat LTR‐DsRed cells, clone #11, were treated with 3 μM PH02 and/or 10 nM PEP005, for 24 h, and the cells cross‐linked with 1% formaldehyde for 10 min at RT. The cells were resuspended in cold NP‐40 lysis buffer (0.5% NP‐40, 10 mM Tris–HCl pH 7.8, 3 mM MgCl2) containing freshly added protease inhibitor cocktail (PIC, Sigma‐Aldrich) and spun to collect nuclei. The nuclei were sonicated in buffer containing 10 mM Tris–HCl (pH 7.8), 10 mM EDTA, and 0.5% SDS to obtain DNA fragments of 200–2,000 bp using a Bioruptor sonicator (Diagenode). The chromatin fractions were precleared with protein A/G agarose beads (Millipore) and immune‐precipitated with anti‐H3K9‐me3, anti‐H3K9‐ac, or anti‐H3 antibodies (Abcam) according to the manufacturer's instructions. Cross‐links were reversed by incubating the samples at 68°C for 2 h, and DNA was purified using QIAquick PCR columns and assayed by qPCR using primers specific to the HIV‐1 LTR core promoter, AGTGGCGAGCCCTCAGAT, and […]. Results are presented as normalized relative to that for histone H3 immunoprecipitates.

The test system of test [2] is SP1, NF‐κB p65, IκBα, total H3K9‐me3 and H3K9ac in Jurkat^Tat reporter cells. As to the kind of experiment: Western blot of SP1, NF‐κB p65, IκBα and global H3K9 modifications. The method, then:
as §1
Figure EV3 Effect of PH compounds on SP1, NF‐κB p65, and IκBα expression Jurkat^Tat LTR‐Luciferase cells were treated with a single concentration (3 μM) of each PH compound for the indicated time points. Whole‐cell protein extract was separated by SDS–PAGE, transferred to nitrocellulose membrane, and blotted with antibodies against SP1, NF‐κB p65, and IκBα. GAPDH was used as the loading control. Source data are available online for this figure.
5 × 10^6 luciferase reporter cells/Jurkat^Tat LTR‐DsRed, clone 11, were treated with the indicated concentration of the compounds. After treatment, the cells were lysed in RIPA buffer (50 mM Tris–HCl, pH 8.0, 150 mM NaCl, 1% NP‐40, 0.5% sodium deoxycholate, 0.1% SDS), supplemented with 1× protease inhibitor cocktail and 1 mM DTT, to collect the whole‐cell protein extract, which was further quantified using Bradford assay. A 30 μg equivalent of the protein extract was mixed with the 5× SDS–PAGE sample buffer and boiled for 5 min, and then, it was separated using 12% SDS–PAGE gel and transferred to a nitrocellulose membrane. […]
(In western blotting, separated proteins are transferred to a membrane and probed.)

For test [3], the system named is replication‐competent HIV‐1 provirus in CD4^+ T cells from HIV‐1‐infected patients. As to the kind of experiment: Quantitative viral outgrowth assay (qVOA). How it is done: However, 1 nM PEP005 in combination with 1 μM PH02 produced a significant response that was double that produced by 1 μM PH02 on its own (Fig 10A). We confirmed this effect using a quantitative viral outgrowth assay (qVOA) with pools of CD4^+ T cells isolated from HIV‐1‐infected patient samples (Fig EV5, Appendix Table S5). […] We conclude that this combination of treatments may represent a promising candidate therapy to target persistent latent viral infection.
Figure EV5 Assay for reactivation of HIV‐1 from latently infected cells using a quantitative viral outgrowth assay Resting CD4^+ T cells from patient samples were serially diluted in 6‐ or 24‐well plates in duplicate (top) and treated as indicated (left). After 24 h, MOLT4/CCR5 cells were added to the wells, and the cultures incubated a further 14 days. HIV‐1 RNA was detected in filtered culture supernatants using RT–qPCR, and wells producing the specific PCR product are indicated in green. […]
For quantitative viral outgrowth assays (qVOA), serial dilutions of CD4^+ T lymphocytes from pooled HIV‐infected patients were plated in 6‐ or 24‐well plates (1 × 10^6 cells or < 1 × 10^6 cells, respectively). […] Viral RNA was isolated from the culture supernatants and analyzed as described above. […]

Where [4] appears, read: single treatment, 3 μM PH02 or 10 nM PEP005, 24 h.
Where [5] appears, read: Jurkat^Tat LTR‐DsRed clone 11, 24 h.

Turning to `C/C=C(/C)C(=O)O[C@H]1C(C)=C[C@]23C(=O)[C@@H](C=C(CO)[C@@H](O)[C@]12O)[C@H]1[C@@H](C[C@H]3C)C1(C)C` [PEP005, ingenol‐3‐angelate, reference compound], in test [1] (setting [4]), the “H3K9 acetylation on the LTR” value is reported as “accumulation of H3K9 acetylation” and the “H3K9‐3me at the LTR relative to total histone H3” value was “a similar effect was observed”. Moreover, the IκBα level entry in test [2] (Jurkat^Tat LTR‐DsRed clone 11, 24‐h treatment, alone or with PH02) is recorded as “causes loss of IκBα”. Further, in test [3] (1 nM PEP005 alone, 24 h), the reactivation of virus entry was “did not produce reactivation of virus”.

As for `CC(=O)Oc1ccccc1N(C=C1Sc2ccccc2C1=O)C(C)=O` [PH02, 2‐{acetyl[(3‐oxo‐1‐benzothien‐2(3H)‐ylidene)methyl]amino}phenyl acetate], the “H3K9 acetylation on the LTR” value in test [1] (3 μM PH02 + 10 nM PEP005, 24 h) was “significant elevation”; in test [1] (setting [4]), “accumulation of H3K9 acetylation”. For the same compound, the “H3K9‐3me at the LTR relative to total histone H3” value was “equivalent reduction” in test [1] (3 μM PH02 + 10 nM PEP005, 24 h, versus either drug separately) and “significantly reduced” in test [1] (setting [4]). Besides, the “expression of NF‐κB p65 and SP1” value in test [2] (setting [5]) is recorded as “mostly unaffected”. Further, the “global acetylation or methylation of lysine 9 on H3” value in test [2] (setting [5]) is “do not observe a significant effect”. Further, the virus replication entry in test [3] (1 μM PH02 + 1 nM PEP005, 24 h) is on record as “produced significant virus replication”.
